Results: EPA's CvTdb concentration-time database

Assays:
Rat [1] = experiment: concentration in liver after dosing; details: 144 h; dosed: Tamoxifen; 300 ug/mL; oral; Female; F344
Rat [2] = experiment: concentration in liver after dosing; details: 144 h; dosed: Tamoxifen citrate; 300 ug/mL; oral; Female; F344
Rat [3] = experiment: concentration in liver after dosing; details: 72 h; dosed: Tamoxifen citrate; 300 ug/mL; oral; Female; F344
Rat [4] = experiment: concentration in liver after dosing; details: 72 h; dosed: Tamoxifen citrate; 100 ug/mL; oral; Female; F344
Rat [5] = experiment: concentration in liver after dosing; details: 144 h; dosed: Tamoxifen citrate; 100 ug/mL; oral; Female; F344
Rat [6] = experiment: concentration in liver after dosing; details: 144 h; dosed: Tamoxifen citrate; 100 ug/mL; oral; Female; F344; remark: listed apart in the source
Rat [7] = experiment: concentration in liver after dosing; details: 144 h; dosed: Tamoxifen; 300 ug/mL; oral; Female; F344; remark: listed apart in the source
Rat [8] = experiment: concentration in liver after dosing; details: 144 h; dosed: Tamoxifen; 300 ug/mL; oral; Female; F344; remark: listed apart in the source
Rat [9] = experiment: concentration in liver after dosing; details: 144 h; dosed: Tamoxifen citrate; 300 ug/mL; oral; Female; F344; remark: listed apart in the source
Rat [10] = experiment: concentration in liver after dosing; details: 72 h; dosed: Tamoxifen citrate; 100 ug/mL; oral; Female; F344; remark: listed apart in the source
Rat [11] = experiment: concentration in liver after dosing; details: oral, Female, F344
Rat [12] = experiment: concentration in liver after dosing; details: 72 h; dosed: Tamoxifen; 300 ug/mL; oral; Female; F344
Rat [13] = experiment: concentration in liver after dosing; details: 144 h; dosed: Tamoxifen citrate; 300 ug/mL; oral; Female; F344; remark: listed apart in the source
Rat [14] = experiment: concentration in liver after dosing; details: 72 h; dosed: Tamoxifen citrate; 300 ug/mL; oral; Female; F344; remark: listed apart in the source
Rat [15] = experiment: concentration in liver after dosing; details: 144 h; dosed: Tamoxifen; 300 ug/mL; oral; Female; F344; remark: listed apart in the source
Rat [16] = experiment: concentration in liver after dosing; details: 72 h; dosed: Tamoxifen; 300 ug/mL; oral; Female; F344; remark: listed apart in the source
Rat [17] = experiment: concentration in liver after dosing; details: 144 h; dosed: Tamoxifen; 300 ug/mL; oral; Female; F344; remark: listed apart in the source
Rat [18] = experiment: concentration in liver after dosing; details: 144 h; dosed: Tamoxifen citrate; 300 ug/mL; oral; Female; F344; remark: listed apart in the source
Rat [19] = experiment: concentration in liver after dosing; details: 144 h; dosed: Tamoxifen citrate; 300 ug/mL; oral; Female; F344; remark: listed apart in the source
Rat [20] = experiment: concentration in plasma after dosing; details: dosed: Tamoxifen citrate, 300 ug/mL, oral, Female, F344
Rat [21] = experiment: concentration in plasma after dosing; details: dosed: Tamoxifen citrate, 300 ug/mL, oral, Female, F344; remark: listed apart in the source
Rat [22] = experiment: concentration in plasma after dosing; details: dosed: Tamoxifen, 300 ug/mL, oral, Female, F344
Rat [23] = experiment: concentration in plasma after dosing; details: dosed: Tamoxifen, 300 ug/mL, oral, Female, F344; remark: listed apart in the source
Rat [24] = experiment: concentration in plasma after dosing; details: 300 ug/mL, oral, Female, F344
Rat [25] = experiment: concentration in plasma after dosing; details: dosed: Tamoxifen, 300 ug/mL, oral, Female, F344; remark: listed apart in the source
Rat [26] = experiment: concentration in plasma after dosing; details: dosed: Tamoxifen citrate, 300 ug/mL, oral, Female, F344; remark: listed apart in the source
Rat [27] = experiment: concentration in adipose after dosing; details: 144 h; dosed: Tamoxifen; 300 ug/mL; oral; Female; F344
Rat [28] = experiment: concentration in adipose after dosing; details: 144 h; dosed: Tamoxifen; 300 ug/mL; oral; Female; F344; remark: listed apart in the source
Rat [29] = experiment: concentration in adipose after dosing; details: 72 h; dosed: Tamoxifen citrate; 100 ug/mL; oral; Female; F344
Rat [30] = experiment: concentration in adipose after dosing; details: 72 h; dosed: Tamoxifen; 300 ug/mL; oral; Female; F344
Rat [31] = experiment: concentration in adipose after dosing; details: 144 h; dosed: Tamoxifen; 300 ug/mL; oral; Female; F344; remark: listed apart in the source
Rat [32] = experiment: concentration in adipose after dosing; details: 72 h; dosed: Tamoxifen; 300 ug/mL; oral; Female; F344; remark: listed apart in the source
Rat [33] = experiment: concentration in adipose after dosing; details: 144 h; dosed: Tamoxifen citrate; 300 ug/mL; oral; Female; F344
Rat [34] = experiment: concentration in adipose after dosing; details: 144 h; dosed: Tamoxifen citrate; 300 ug/mL; oral; Female; F344; remark: listed apart in the source
Rat [35] = experiment: concentration in adipose after dosing; details: 144 h; dosed: Tamoxifen citrate; 300 ug/mL; oral; Female; F344; remark: listed apart in the source
Rat [36] = experiment: concentration in adipose after dosing; details: 72 h; dosed: Tamoxifen citrate; 100 ug/mL; oral; Female; F344; remark: listed apart in the source
Rat [37] = experiment: concentration in adipose after dosing; details: 144 h; dosed: Tamoxifen citrate; 300 ug/mL; oral; Female; F344; remark: listed apart in the source
Rat [38] = experiment: concentration in adipose after dosing; details: 144 h; dosed: Tamoxifen; 300 ug/mL; oral; Female; F344; remark: listed apart in the source
Rat [39] = experiment: concentration in adipose after dosing; details: 144 h; dosed: Tamoxifen; 300 ug/mL; oral; Female; F344; remark: listed apart in the source
Rat [40] = experiment: concentration in adipose after dosing; details: 144 h; dosed: Tamoxifen citrate; 300 ug/mL; oral; Female; F344; remark: listed apart in the source
Rat [41] = experiment: concentration in adipose after dosing; details: 72 h; dosed: Tamoxifen citrate; 300 ug/mL; oral; Female; F344
Rat [42] = experiment: concentration in adipose after dosing; details: 144 h; dosed: Tamoxifen citrate; 100 ug/mL; oral; Female; F344
Rat [43] = experiment: concentration in adipose after dosing; details: oral, Female, F344
Rat [44] = experiment: concentration in adipose after dosing; details: 72 h; dosed: Tamoxifen citrate; 300 ug/mL; oral; Female; F344; remark: listed apart in the source

CC/C(=C(\c1ccccc1)c1ccc(OCCN(C)C)cc1)c1ccccc1 [Tamoxifen]
Details | concentration in adipose [ng/mL] | concentration in liver [ng/g]
Rat [1] | – | 25.3
Rat [2] | – | 58.4
Rat [3] | – | 30.5
Rat [4] | – | 5.85
Rat [5] | – | 16.3
Rat [6] | – | 13.9
Rat [7] | – | 37.2
Rat [8] | – | 22.8
Rat [9] | – | 37.2
Rat [10] | – | 13
Rat [12] | – | 21.1
Rat [13] | – | 22.8
Rat [14] | – | 21.1
Rat [15] | – | 239
Rat [16] | – | 30.5
Rat [17] | – | 58.4
Rat [18] | – | 25.3
Rat [19] | – | 239
Rat [27] | 55.7 | –
Rat [28] | 40.1 | –
Rat [29] | 14.8 | –
Rat [30] | 31.2 | –
Rat [31] | 44.5 | –
Rat [32] | 27.4 | –
Rat [33] | 44.5 | –
Rat [34] | 40.1 | –
Rat [35] | 151 | –
Rat [36] | 5.58 | –
Rat [37] | 55.7 | –
Rat [38] | 151 | –
Rat [39] | 30.4 | –
Rat [40] | 30.4 | –
Rat [41] | 27.4 | –
Rat [42] | 10.4 | –
Rat [44] | 31.2 | –

Details | concentration in adipose, Rat [43] [ng/mL] | concentration in liver, Rat [11] [ng/g]
72 h, dosed: Tamoxifen citrate, 100 ug/mL | 7.52 | 7.61
72 h, dosed: Tamoxifen citrate, 300 ug/mL | 33.6 | 39.5
72 h, dosed: Tamoxifen, 300 ug/mL | 33.6 | 39.5
144 h, dosed: Tamoxifen citrate, 100 ug/mL | 9.5 | 13.4
144 h, dosed: Tamoxifen citrate, 300 ug/mL | 31.5 | 48.3
144 h, dosed: Tamoxifen, 300 ug/mL | 31.5 | 48.3

concentration in plasma [ng/mL]
Details | Rat [20] | Rat [21] | Rat [22] | Rat [23] | Rat [25] | Rat [26]
0.25 h | 11.9 | 21.9 | 11.9 | 15.4 | 21.9 | 15.4
0.5 h | 8.96 | 10.2 | 8.96 | 12.2 | 10.2 | 12.2
1 h | 7.35 | – | 7.35 | 9.33 | – | 9.33
2 h | 5.81 | 6.23 | 5.81 | 8.41 | 6.23 | 8.41
4 h | – | 4.51 | – | 4.44 | 4.51 | 4.44
12 h | – | 2.66 | – | – | 2.66 | –

concentration in plasma [ng/mL], Rat [24]
Details | 0 h | 0.25 h | 0.5 h | 1 h | 2 h | 4 h | 8 h | 16 h
dosed: Tamoxifen | 2.13 | 3.18 | 2.95 | 2.9 | 4.38 | 4.12 | 4.6 | 2.42
dosed: Tamoxifen citrate | 2.13 | 3.18 | 2.95 | 2.9 | 4.38 | 4.12 | 4.6 | 2.42
